{"source": "patent US20130302445A1", "about": "“APPARATUS AND METHOD FOR TREATING CEREBRAL ISCHEMIA USING NON-INHALED CARBON DIOXIDE” (priority 2012, published 2013)", "key": {"[1]": {"system": "intubated patients", "settings": "hypercarbia from reduced ventilation rate; cited from earlier work"}, "[2]": {"system": "cerebral blood flow in rats", "assay": "Intranasal or intra-oral delivery of non-inhaled CO2 with air ventilation through a tracheostomy; cerebral blood flow and arterial gases", "format": "in vivo", "settings": "rat", "excerpt": "When CO2 s inhaled through the nose or mouth into the pulmonary circulation, it passes into the systemic blood stream through the alveoli. Once it reaches the brain, it diffuses out into the csf to exert its effect. As more CO2 is inhaled into the lungs and absorbed into the systemic circulation, arterial CO2 concentration (PaCO2) rises, hydrogen ions are produced and arterial pH falls, creating an acidosis. Acidosis leads to narcosis, and ultimately coma and death. Less severe signs of CO2 inhalation in non-intubated patients include headaches, sweating and hyperventilation. […] Inhalation is prevented by ventilating the animal through a tracheostomy with air while delivering the experimental gas intranasally (or intra orally).\nThe increase is the same with 100% and with 50% gas concentration. […] Decline following discontinuation is somewhat slower than rise during delivery.\n(§1) Referring now to FIG. 3, it can be seen that the increase in cbf is attributable to focal intranasal or intra-oral effect rather than to systemic absorption of CO2. […] At this very high concentration, sufficient CO2 must be absorbed focally, intracranially, into the cerebral circulation to appear in measurable amounts in the systemic circulation. It cannot be concluded, therefore, that the increase in cbf is caused by a purely local action of CO2 rather than being secondary to systemic absorption. […] The effect on cbf during intranasal or intra oral delivery of CO2 with concomitant air inhalation into the lungs is therefore a focal effect on intranasal and intracranial vasculature rather than secondary to systemic absorption."}, "[3]": {"system": "cerebral blood flow in rats", "assay": "CO2 delivered into the lungs (systemic challenge); cerebral blood flow and arterial gases", "format": "in vivo", "settings": "rat, delivery into lungs", "excerpt": "as §1"}, "[4]": {"system": "awake humans", "assay": "Tolerability of intranasal CO2 delivery in awake humans", "format": "in vivo, human", "excerpt": "While CO2 may be given to intubated, comatose individuals, the tolerability of intranasal gas delivery in awake humans has not previously been investigated. We have systematically tested the tolerability and effect of CO2 during intranasal delivery. CO2 elicits intense burning and stinging sensations which are intolerable above 16%. […] So individuals who are awake, such as stroke patients, these lower concentrations would be recommended. The current invention delivers CO2, or a combination of gases into the nasal or oral cavity but prevents its inhalation for the purposes of improving outcome from cerebral ischemia. […] In the embodiment with the anterior occlusion or “clip,” the CO2 could escape via a valve or exit tube or be suctioned out into a vacuumed container."}, "[5]": {"settings": "50% CO2 intranasal, air into lungs"}}}
{"smiles": "O=C=O", "note": "[CO2, carbon dioxide]", "values": [{"measurement": "increase in cbf per mm Hg increase in arterial CO2 over 45 mm", "setting": "[1]", "result": 4, "unit": "%"}, {"measurement": "arterial pH, intranasal CO2 concentration 50%", "setting": "[2]; [5]", "result": "without any detectable increase in systemic PaCO2 or fall of pH"}, {"measurement": "cbf, intranasal CO2 concentration 50%", "setting": "[2]; [5]", "result": "doubles"}, {"measurement": "systemic PaCO2, intranasal CO2 concentration 50%", "setting": "[2]; [5]", "result": "without any detectable increase"}, {"measurement": "cbf, 100% CO2 delivered intranasally", "setting": "[2]; 100% CO2 intranasal", "result": "also increases"}, {"measurement": "systemic CO2, 100% CO2 delivered intranasally, compared with lung delivery", "setting": "[2]; 100% CO2 intranasal", "result": "far less increase"}, {"measurement": "onset of cbf increase after start of delivery", "setting": "[2]; intranasal or intra-oral, non-inhaled", "result": "within seconds"}, {"measurement": "cbf during intranasal or intra-oral delivery of CO2", "setting": "[2]; non-inhaled, increase the same with 100% and 50% gas concentration", "result": "more than doubled"}, {"measurement": "arterial CO2 concentration when CO2 is delivered into the lungs", "setting": "[3]", "result": "rapidly increases"}, {"measurement": "arterial pH when CO2 is delivered into the lungs", "setting": "[3]", "result": "falls"}, {"measurement": "cbf when CO2 is delivered into the lungs", "setting": "[3]", "result": "increases sharply"}, {"measurement": "CO2 concentration above which burning and stinging sensations are intolerable", "setting": "[4]", "result": "above 16%"}, {"measurement": "tolerability of sensations at 16% CO2 or below", "setting": "[4]; 16% or below, sensations abate over a few minutes", "result": "quite tolerable"}]}
